Assays:
olfactory receptor OR8D1 [1] = target: T1, olfactory receptor OR8D1 (Homo sapiens, UniProt Q8WZ84); assay: Antagonistic activity against the response of OR8D1 to sotolone (luciferase assay, rate of inhibition); assay type: cell-based; conditions: sotolone 100 μM and test substance 100 μM, OR8D1-expressing HEK293 cells
T1 construct: expressed in transfected cells; host or cells: HEK293
T1 sequence (Q8WZ84 1-308): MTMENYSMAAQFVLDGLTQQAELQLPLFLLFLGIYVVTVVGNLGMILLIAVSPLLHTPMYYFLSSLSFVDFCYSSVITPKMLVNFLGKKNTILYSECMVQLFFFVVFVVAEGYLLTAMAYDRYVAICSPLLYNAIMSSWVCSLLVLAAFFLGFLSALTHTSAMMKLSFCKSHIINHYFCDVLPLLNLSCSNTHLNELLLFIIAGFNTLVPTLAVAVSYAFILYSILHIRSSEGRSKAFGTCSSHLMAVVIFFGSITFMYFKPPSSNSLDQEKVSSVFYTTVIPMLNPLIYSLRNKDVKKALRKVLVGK
Experimental: 228 types of test substances were examined for their antagonistic activity against the response of the olfactory receptor OR8D1 to sotolone.
Sotolone (100 μM) and each test substance (100 μM) were added to HEK293 cells allowed to express the olfactory receptor OR8D1 by the same procedures as in Example 2. The response of the olfactory receptor was measured to evaluate change in receptor response caused by the addition of the test substance.
The rate of inhibition of the receptor response by the test substance was calculated as follows: firefly luciferase-derived luminescence intensity (Y) in the olfactory receptor OR8D1-expressing cells without sotolone stimulation was subtracted from firefly luciferase-derived luminescence intensity (X) induced by stimulation with sotolone alone to determine receptor activity (X−Y) based on the stimulation with sotolone alone. Likewise, the luminescence intensity (Y) in the cells without sotolone stimulation was subtracted from luminescence intensity (Z) induced by stimulation with the mixture of sotolone and the test substance to determine receptor activity (Z−Y) in the presence of the test substance. The rate of reduction in the receptor activity (Z−Y) in the presence of the test substance with respect to the receptor activity (X−Y) based on the stimulation with sotolone alone was calculated according to an expression shown below to determine the rate of inhibition of the receptor response by the test substance. In this assay, a plurality of independent duplicate experiments was performed. An average of the experiments in each run was obtained. Rate of inhibition (%)={1−(Z−Y)/(X−Y)}×100

[2] = test system: the other olfactory receptors (400 types of human olfactory receptors except OR8D1); assay: Luciferase reporter gene assay of 400 types of human olfactory receptors, response to sotolone; assay type: cell-based; conditions: sotolone 1 mM, HEK293 cells expressing each receptor
Source text: (§1) On the basis of sequence information registered in GenBank, each human olfactory receptor gene was cloned by PCR with Human Genomic DNA Female (G1521: Promega Corp.) as a template. Each gene thus amplified by PCR was inserted into a pENTR vector (Invitrogen Corp.) according to the manual. A NotI-AscI site present on the pENTR vector r was recombined into a NotI-AscI site prepared downstream of Flag-Rho tag sequence on a pME18S vector.
(§2) A gene (GenBank GI: 50234917) encoding a human receptor transport protein, RTP1S was inserted into the EcoRI-XhoI site of the pME18S vector.
(§3) HEK293 cells expressing each of 400 types of human olfactory receptors were prepared. […]
(§4) The olfactory receptors expressed on the HEK293 cells are conjugated with intracellular Gas to activate adenylate cyclase, thereby increasing intracellular cAMP levels. In this study, their responses to sotolone were measured using luciferase reporter gene assay which involved monitoring increase in intracellular cAMP level as luminescence intensity derived from a firefly luciferase gene (fluc2P-CRE-hygro). […]
(§5) A medium was removed from the cultures prepared in the preceding paragraph 3). […] The luciferase activity was measured using Dual-Glo™ luciferase assay system (Promega Corp.) according to the instruction manual of the product. […]

olfactory receptor OR8D1 [3] = target: T1, olfactory receptor OR8D1; assay: Luciferase reporter gene assay (cAMP) of olfactory receptor response to sotolone in HEK293 cells; assay type: cell-based
Source text: as §1, §2, §3, §4, §5

olfactory receptor OR8D1 [4] = target: T1, olfactory receptor OR8D1; conditions: Non-Patent Document 5; cited from earlier work

Compound	inhibition at 100 µM (olfactory receptor OR8D1 [1]) [%]	further results
CC1C/C=C/CCCCCCCCCC(=O)C1 [Muscenone(R) Delta, (5E)-3-methylcyclopentadec-5-en-1-one]	≥ 50	
CC(C)=CCCC(C)=CC=O [Citral, citral]	≥ 50	
CC(=O)C1=C(C)C2CC3(C1)C(C)CCC3C2(C)C (stereo not drawn) [acetylcedrene, 1-(2,3,4,7,8,8a-hexahydro-3,6,8,8-tetramethyl-1H-3a,7-methanoazulen-5-yl)-ethanone]	≥ 75	
CC1=C(O)C(=O)OC1C (stereo not drawn) [sotolone, 3-Hydroxy-4,5-dimethyl-2(5H)-furanone]		response of the other olfactory receptors to sotolone [2]: did not respond; concentration dependence of the response of OR8D1 to sotolone (olfactory receptor OR8D1 [3]; sotolone 0, 3, 10, 30, 100, 300, 1000 and 3000 μM, HEK293 cells with human RTP1S): concentration-dependent response; response of olfactory receptor OR8D1 to sotolone (olfactory receptor OR8D1 [3]; sotolone 1 mM, HEK293 cells expressing the receptor, 2.5 hours, fold increase of luminescence): exhibited a response; response of olfactory receptor OR8D1 induced by sotolone (reported) (olfactory receptor OR8D1 [4]): induces the response
CC(=O)c1cc2c(cc1C)C(C)(C)C(C)CC2(C)C [Tonalid(R), 1-(5,6,7,8-tetrahydro-3,5,5,6,8,8-hexamethyl-2-naphthalenyl)-ethanone]	≥ 50	
CC(=O)C1(C)CC2=C(CCCC2(C)C)CC1C (stereo not drawn) [Iso E Super, 7-acetyl-1,2,3,4,5,6,7,8-octahydro-1,1,6,7-tetramethyl-naphthalene]	≥ 50	
C[C@@H]1CCCCCCCCCCCCC(=O)C1 [Muscone, muscone]		rate of inhibition of the response of OR8D1 to sotolone (olfactory receptor OR8D1 [1]): 40% or more rate of

Second part, led by results:

inhibition at 100 µM (olfactory receptor OR8D1 [1]) [%]	Compound	further results
≥ 50	CC(C)(C)c1ccc(CCC=O)cc1 [bourgeonal, 3-(4-tert-butylphenyl)propanal]	
≥ 50	CCCCCC(C=O)=Cc1ccccc1 [amylcinnamic aldehyde, 2-benzylideneheptanal]	
